# Values of other authors in patent publication US20200229407A1 (priority 2017, published 2020).
# Key:
# [1] = system: prion replication in neuroblastoma cells
# scrapie agent = details: mouse, in vivo
Compound,cell-surface PrP (cell-surface PrP),prion replication [1],incubation period (scrapie agent)
COc1ccc(CCN2CCC(Nc3nc4ccccc4n3Cc3ccc(F)cc3)CC2)cc1 [astemizole],reducing cell-surface PrP,inhibiting prion replication,
C=CC[C@@H]1/C=C(\C)C[C@H](C)C[C@H](OC)[C@H]2O[C@@](O)(C(=O)C(=O)N3CCCC[C@H]3C(=O)O[C@H](/C(C)=C/[C@@H]3CC[C@@H](O)[C@H](OC)C3)[C@H](C)[C@@H](O)CC1=O)[C@H](C)C[C@@H]2OC [tacrolimus],reducing cell-surface PrP,inhibiting prion replication,
pentosan polysulphate [PPS],,,prolonged the incubation period
